{
  "source": "paper PMC7168327",
  "about": "“Designed Antimicrobial Peptides for Topical Treatment of Antibiotic Resistant Acne Vulgaris” (Antibiotics, 2020)",
  "origin": "cited, not measured here",
  "details_in_all_cases": "cited from earlier work",
  "key": {"C. acnes HL053PA1": {"system": "C. acnes HL053PA1", "text": "(§1) Table 1 Growth Inhibition of dAMPs (MICs, µg/mL) against C. acnes Isolates. | column: Antibiotic Sensitivity / Tetra ^#; Antibiotic Sensitivity / Ery ^#; Antibiotic Sensitivity / Clind ^#"}, "C. acnes HL043PA2": {"system": "C. acnes HL043PA2", "text": "as §1"}, "C. acnes HL013PA1": {"system": "C. acnes HL013PA1", "text": "as §1"}, "C. acnes HL056PA1": {"system": "C. acnes HL056PA1", "text": "as §1"}, "C. acnes ATCC6919": {"system": "C. acnes ATCC6919", "text": "as §1"}, "C. acnes HL082PA2": {"system": "C. acnes HL082PA2", "text": "as §1"}, "C. acnes ATCC11827": {"system": "C. acnes ATCC11827", "text": "as §1"}, "C. acnes HL038PA1": {"system": "C. acnes HL038PA1", "text": "as §1"}, "C. acnes HL007PA1": {"system": "C. acnes HL007PA1", "text": "as §1"}, "C. acnes HL043PA1": {"system": "C. acnes HL043PA1", "text": "as §1"}, "C. acnes HL045PA1": {"system": "C. acnes HL045PA1", "text": "as §1"}, "C. acnes HL072PA1": {"system": "C. acnes HL072PA1", "text": "as §1"}},
  "data": [
    {"smiles": "CN(C)[C@@H]1C(O)=C(C(N)=O)C(=O)[C@@]2(O)C(O)=C3C(=O)c4c(O)cccc4[C@@](C)(O)[C@H]3C[C@@H]12", "note": "[Tetra, tetracycline]", "values": [
      {"measurement": "Antibiotic Sensitivity, Tetra", "setting": "C. acnes HL053PA1", "result": "R (resistance to tetracycline (Tetra), MIC ≥ 1.0 μg/mL)"},
      {"measurement": "Antibiotic Sensitivity, Tetra", "setting": "C. acnes HL043PA2", "result": "R (resistance to tetracycline (Tetra), MIC ≥ 1.0 μg/mL)"},
      {"measurement": "Antibiotic Sensitivity, Tetra", "setting": "C. acnes HL013PA1", "result": "R (resistance to tetracycline (Tetra), MIC ≥ 1.0 μg/mL)"},
      {"measurement": "Antibiotic Sensitivity, Tetra", "setting": "C. acnes HL056PA1", "result": "R (resistance to tetracycline (Tetra), MIC ≥ 1.0 μg/mL)"},
      {"measurement": "Antibiotic Sensitivity, Tetra", "setting": "C. acnes ATCC6919", "result": "S (S, sensitive)"},
      {"measurement": "Antibiotic Sensitivity, Tetra", "setting": "C. acnes HL082PA2", "result": "R (resistance to tetracycline (Tetra), MIC ≥ 1.0 μg/mL)"},
      {"measurement": "Antibiotic Sensitivity, Tetra", "setting": "C. acnes ATCC11827", "result": "S (S, sensitive)"},
      {"measurement": "Antibiotic Sensitivity, Tetra", "setting": "C. acnes HL038PA1", "result": "R (resistance to tetracycline (Tetra), MIC ≥ 1.0 μg/mL)"},
      {"measurement": "Antibiotic Sensitivity, Tetra", "setting": "C. acnes HL007PA1", "result": "R (resistance to tetracycline (Tetra), MIC ≥ 1.0 μg/mL)"},
      {"measurement": "Antibiotic Sensitivity, Tetra", "setting": "C. acnes HL043PA1", "result": "R (resistance to tetracycline (Tetra), MIC ≥ 1.0 μg/mL)"},
      {"measurement": "Antibiotic Sensitivity, Tetra", "setting": "C. acnes HL045PA1", "result": "R (resistance to tetracycline (Tetra), MIC ≥ 1.0 μg/mL)"},
      {"measurement": "Antibiotic Sensitivity, Tetra", "setting": "C. acnes HL072PA1", "result": "R (resistance to tetracycline (Tetra), MIC ≥ 1.0 μg/mL)"}
    ]},
    {"smiles": "CCC[C@@H]1C[C@@H](C(=O)N[C@@H]([C@H]2O[C@H](SC)[C@H](O)[C@@H](O)[C@H]2O)[C@H](C)Cl)N(C)C1", "note": "[Clind, clindamycin]", "values": [
      {"measurement": "Antibiotic Sensitivity, Clind", "setting": "C. acnes HL053PA1", "result": "R (Antibiotic resistance to clindamycin defined by MIC ≥ 32 μg/mL)"},
      {"measurement": "Antibiotic Sensitivity, Clind", "setting": "C. acnes HL043PA2", "result": "R (Antibiotic resistance to clindamycin defined by MIC ≥ 32 μg/mL)"},
      {"measurement": "Antibiotic Sensitivity, Clind", "setting": "C. acnes HL013PA1", "result": "R (Antibiotic resistance to clindamycin defined by MIC ≥ 32 μg/mL)"},
      {"measurement": "Antibiotic Sensitivity, Clind", "setting": "C. acnes HL056PA1", "result": "R (Antibiotic resistance to clindamycin defined by MIC ≥ 32 μg/mL)"},
      {"measurement": "Antibiotic Sensitivity, Clind", "setting": "C. acnes ATCC6919", "result": "S (S, sensitive)"},
      {"measurement": "Antibiotic Sensitivity, Clind", "setting": "C. acnes HL082PA2", "result": "S (S, sensitive)"},
      {"measurement": "Antibiotic Sensitivity, Clind", "setting": "C. acnes ATCC11827", "result": "S (S, sensitive)"},
      {"measurement": "Antibiotic Sensitivity, Clind", "setting": "C. acnes HL038PA1", "result": "R (Antibiotic resistance to clindamycin defined by MIC ≥ 32 μg/mL)"},
      {"measurement": "Antibiotic Sensitivity, Clind", "setting": "C. acnes HL007PA1", "result": "R (Antibiotic resistance to clindamycin defined by MIC ≥ 32 μg/mL)"},
      {"measurement": "Antibiotic Sensitivity, Clind", "setting": "C. acnes HL043PA1", "result": "R (Antibiotic resistance to clindamycin defined by MIC ≥ 32 μg/mL)"},
      {"measurement": "Antibiotic Sensitivity, Clind", "setting": "C. acnes HL045PA1", "result": "R (Antibiotic resistance to clindamycin defined by MIC ≥ 32 μg/mL)"},
      {"measurement": "Antibiotic Sensitivity, Clind", "setting": "C. acnes HL072PA1", "result": "R (Antibiotic resistance to clindamycin defined by MIC ≥ 32 μg/mL)"}
    ]}
  ]
}
